{"source": "paper PMC9241915", "about": "“Functional Analysis of Feedback Inhibition-Insensitive Variants of N-Acetyl Glutamate Kinase Found in Sake Yeast Mutants with Ornithine Overproduction” (Microbiology Spectrum, 2022)", "experiment_in_all_cases": "PK/LDH-coupled NADH oxidation at […] nm", "format_in_all_cases": "biochemical", "key": {"[1]": {"target": "T1, NAGK (N-acetyl glutamate kinase, Arg6) (Saccharomyces cerevisiae, UniProt Q01217, T340E)", "T1 construct": "gene ARG5", "T1 sequence (Q01217 58-513 T340E)": "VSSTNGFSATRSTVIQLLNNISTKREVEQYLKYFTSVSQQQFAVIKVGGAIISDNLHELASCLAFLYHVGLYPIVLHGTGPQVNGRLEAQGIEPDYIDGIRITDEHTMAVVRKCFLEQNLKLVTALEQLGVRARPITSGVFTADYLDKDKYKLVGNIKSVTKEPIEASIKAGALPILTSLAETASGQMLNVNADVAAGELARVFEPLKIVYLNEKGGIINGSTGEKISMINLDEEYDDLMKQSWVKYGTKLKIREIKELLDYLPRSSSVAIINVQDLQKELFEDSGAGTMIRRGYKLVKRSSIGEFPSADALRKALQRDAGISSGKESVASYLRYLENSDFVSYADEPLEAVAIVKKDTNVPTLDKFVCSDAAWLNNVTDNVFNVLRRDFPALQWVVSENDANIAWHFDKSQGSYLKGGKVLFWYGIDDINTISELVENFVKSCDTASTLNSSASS"}, "[2]": {"target": "T2, NAGK (N-acetyl glutamate kinase, Arg6) (Saccharomyces cerevisiae, UniProt Q01217, T340S)", "T2 construct": "gene ARG5", "T2 sequence (Q01217 58-513 T340S)": "as the sequence (Q01217 58-513 T340E) above, with E283S counted along it"}, "[3]": {"target": "T3, NAGK (N-acetyl glutamate kinase, Arg6) (Saccharomyces cerevisiae, UniProt Q01217, T340R)", "T3 construct": "gene ARG5", "T3 sequence (Q01217 58-513 T340R)": "as the sequence (Q01217 58-513 T340E) above, with E283R counted along it"}, "[4]": {"target": "T4, NAGK (N-acetyl glutamate kinase, Arg6) (Saccharomyces cerevisiae, UniProt Q01217, C119Y)", "T4 construct": "gene ARG5", "T4 sequence (Q01217 58-513 C119Y)": "as the sequence (Q01217 58-513 T340E) above, with C62Y, E283T counted along it"}, "[5]": {"target": "T5, NAGK (N-acetyl glutamate kinase, Arg6) (Saccharomyces cerevisiae, UniProt Q01217, T340L)", "T5 construct": "gene ARG5", "T5 sequence (Q01217 58-513 T340L)": "as the sequence (Q01217 58-513 T340E) above, with E283L counted along it"}, "[6]": {"target": "T6, NAGK (N-acetyl glutamate kinase, Arg6) (Saccharomyces cerevisiae, UniProt Q01217, V267A)", "T6 construct": "gene ARG5", "T6 sequence (Q01217 58-513 V267A)": "as the sequence (Q01217 58-513 T340E) above, with V210A, E283T counted along it"}, "[7]": {"target": "T7, NAGK (N-acetyl glutamate kinase, Arg6) (Saccharomyces cerevisiae, UniProt Q01217, T340A)", "T7 construct": "gene ARG5", "T7 sequence (Q01217 58-513 T340A)": "as the sequence (Q01217 58-513 T340E) above, with E283A counted along it"}, "[8]": {"target": "T8, NAGK (N-acetyl glutamate kinase, Arg6) (Saccharomyces cerevisiae, UniProt Q01217, T340N)", "T8 construct": "gene ARG5", "T8 sequence (Q01217 58-513 T340N)": "as the sequence (Q01217 58-513 T340E) above, with E283N counted along it"}, "[9]": {"target": "T9, NAGK (N-acetyl glutamate kinase, Arg6) (Saccharomyces cerevisiae, UniProt Q01217)", "T9 construct": "gene ARG5", "T9 sequence (Q01217 58-513)": "as the sequence (Q01217 58-513 T340E) above, with E283T counted along it"}}, "data": [{"smiles": "N=C(N)NCCC[C@H](N)C(=O)O", "note": "[arginine]", "values": [{"measurement": "IC50", "setting": "[1]", "result": "6.87 ± 1", "unit": "mM"}, {"measurement": "IC50", "setting": "[2]", "result": "170 ± 120", "unit": "µM"}, {"measurement": "IC50", "setting": "[3]", "result": "2.48 ± 0.67", "unit": "mM"}, {"measurement": "IC50", "setting": "[4]", "result": "780 ± 50", "unit": "µM"}, {"measurement": "IC50", "setting": "[5]", "result": "10.5 ± 0.8", "unit": "mM"}, {"measurement": "IC50", "setting": "[6]", "result": "2.83 ± 0.16", "unit": "mM"}, {"measurement": "IC50", "setting": "[7]", "result": "2.25 ± 0.2", "unit": "mM"}, {"measurement": "IC50", "setting": "[8]", "result": "24 ± 5.36", "unit": "mM"}, {"measurement": "IC50", "setting": "[9]", "result": 90, "unit": "µM"}]}]}
